Biological target: AMPK
Assay: AMPK activation, enzyme-linked immunosorbent assay
Assay type: biochemical
Settings: Table 6, AMPK activation, ELISA

With N#Cc1ccc(CN2CCC(NC3CCc4cc(OC5CCN(c6ccc(C(F)(F)F)cc6)CC5)ccc43)CC2)cc1 (stereo not shown) [Compound 160, 4-((4-(5-(1-(4-(trifluoromethyl)phenyl)piperidin-4-yloxy)-2,3-dihydro-1H-inden-1-ylamino)piperidin-1-yl)methyl)benzonitrile] the EC50 was less than 500 nM.

From US9174964B2, “AMPK-activating piperidinyloxy-substituted 2,3-dihydro-1H-indene-1-amine compounds and pharmaceutical compositions including the same” (Rigel Pharmaceuticals, Inc., priority 2007, dated 2015)
